# Several values for one entry are separate records, joined by “and”; a condition that tells them apart may be missing. Identical values can stand only once.
# What was measured:
# [1] = system: Trypanosoma cruzi and Leishmania chagasi; details: cited from earlier work
# Trypanosoma cruzi = details: read-out: inhibitory effect on 50% of the population (IC50); cited from earlier work
# Gregarina blattarum = experiment: in vitro protozoicidal test on gregarines isolated from cockroaches, in Ringer's solution; assay type: cell-based; details: for LD100: 100% mortality within 3 minutes
# From the text: For in vitro tests of antiprotozoal activity of the composition five reference organisms representing taxonomic groups to which pathogenic protozoa belong were selected, i.e: • Amoeba proteus—Chaos diffluens—a protozoan of the order Euamoebida, belonging to fifth supergroup of the Amoebozoa, living in waters. • Paramecium caudatum—a slipper animalcule representing the Ciliata orachs, living in waters. • Gregarina blattarum—gregarine isolated from cockroaches, representing the phylum Apicomplexa, living in the digestive tracts or body cavities of invertebrates. • Euglena gracilis—a protozoan living in water, representing the flagellates—Mastigophora, family Euglenaceae. • Trichomonas hominis—a protozoan living in the human colon, representing the Trichomonadidae.
# The gregarines were isolated from the cockroaches and, after being placed on a watch slide, were treated with the products at different concentrations in Ringer's solution. Each sample contained ten individuals.
# The compositions, negative controls, and positive controls were dissolved in an aqueous solution of polysorbate 80 (0.05%) before application to a watch slide.
# After this time, the reaction product was filtered through filter paper. […] Compositions I and II were then analysed for their antiprotozoal properties. […]
# The tested preparations were dissolved in an aqueous solution of polysorbate 80 (0.05%) before being applied to a watch glass. […] Observation under a fluorescence microscope with phase contrast was carried out.
# Amoeba proteus = experiment: in vitro protozoicidal test on watch glass, LD50/LD100; assay type: cell-based
# Trichomonas hominis = experiment: as above; assay type: cell-based
# [2] = system: Trypanosoma cruzi and different Leishmania species; details: cited from earlier work
# [3] = 100% mortality within 3 minutes
compound,measurement,setting,value
CC1CS(=O)(=O)CCN1/N=C/c1ccc([N+](=O)[O-])o1 (stereo not shown) [Nifurtimox],IC50,[1],0.3 to 0.4 µg/mL
same,IC50,Trypanosoma cruzi,6 µM
copper carbonate [Copper carbonate solution],LD100,Gregarina blattarum,0.37%
"Cc1ncc([N+](=O)[O-])n1CCO [M, metronidazole]",LD50,Gregarina blattarum; 50% mortality within 3 minutes,0.13% and 0.3%
same,LD100,Gregarina blattarum,0.3%
same,LD50,Amoeba proteus; 50% mortality within 3 minutes,0.3%
same,LD100,Amoeba proteus; [3],0.5%
same,LD50,Trichomonas hominis; 50% mortality within 3 minutes,0.05% and 0.08%
same,LD100,Trichomonas hominis; [3],0.1% and 0.15%
O=C(Cn1ccnc1[N+](=O)[O-])NCc1ccccc1 [benznidazole],values obtained (in vitro antiprotozoal activity),[2],45.02 µg/mL
